# Results: patent US20050197350A1, “Novel quinoline, tetrahydroquinazoline, and pyrimidine derivatives and methods of treatment related to the use thereof” (TAISHO PHARMACEUTICAL CO., LTD., priority 2003, published 2005)
# Tested on: MCH receptors
# Assay: MCH receptor activity class (method not given)
# Details: class by percent of control at 10^-7 M or IC50
row,SMILES,class
1,"C[C@H](C(=O)N[C@H]1CC[C@@H](Nc2nccc(N(C)C)n2)CC1)c1cccc(C(=O)c2ccccc2)c1 [compound 878, (2S)-2-(3-benzoylphenyl)-N-(cis-4-{[4-(dimethylamino)pyrimidin-2-yl]amino}cyclohexyl)propanamide]",2 (Class 2: The value of percent of control at 10^−7 M was from 40% to 60% or the value of IC′50 was from 50 nM to 200 nM.)
2,"C[C@@H](c1ccccc1)N(C(=O)c1ccccc1C(=O)N[C@H]1CC[C@@H](Nc2nccc(N(C)C)n2)CC1)[C@@H](C)c1ccccc1 [compound 879, N′-(cis-4-{[4-(dimethylamino)pyrimidin-2-yl]amino}cyclohexyl)-N,N-bis[(1S)-1-phenylethyl]phthalamide]",1 (Class 1: The value of percent of control at 10^−7 M was less than 40% or the value of IC50 was less than 50 nM.)
3,C[C@H](C(=O)N[C@H]1CC[C@@H](Nc2nccc(N(C)C)n2)CC1)c1ccc(-c2ccccc2)c(F)c1 [compound 880],3 (Class 3 The value of percent of control at 10^−7 M was more than 60% or the value of IC50 was more than 200 nM.)
4,CN(C)c1ccnc(N[C@H]2CC[C@@H](NC(=O)CCC(=O)c3cccs3)CC2)n1 [compound 885],3 (Class 3 The value of percent of control at 10^−7 M was more than 60% or the value of IC50 was more than 200 nM.)
5,CN(C)c1ccnc(N[C@H]2CC[C@@H](NC(=O)CCCc3cccs3)CC2)n1 [compound 886],3 (Class 3 The value of percent of control at 10^−7 M was more than 60% or the value of IC50 was more than 200 nM.)
6,CN(C)c1ccnc(N[C@H]2CC[C@@H](NC(=O)Cc3c[nH]c4ccc(OCc5ccccc5)cc34)CC2)n1 [compound 887],3 (Class 3 The value of percent of control at 10^−7 M was more than 60% or the value of IC50 was more than 200 nM.)
7,CN(C)c1ccnc(N[C@H]2CC[C@@H](NC(=O)c3ccccc3C(=O)c3cccc4ccccc34)CC2)n1 [compound 888],3 (Class 3 The value of percent of control at 10^−7 M was more than 60% or the value of IC50 was more than 200 nM.)
8,"COc1ccc(C(=O)N[C@H]2CC[C@@H](Nc3nccc(N(C)C)n3)CC2)cc1OCc1ccccc1 [compound 889, 3-(benzyloxy)-N-(cis-4-{[4-(dimethylamino)pyrimidin-2-yl]amino}cyclohexyl)-4-methoxybenzamide]",1 (Class 1: The value of percent of control at 10^−7 M was less than 40% or the value of IC50 was less than 50 nM.)
9,"Cc1c(C(=O)N[C@H]2CC[C@@H](Nc3nccc(N(C)C)n3)CC2)cc(-c2ccccc2)n1-c1ccccc1 [compound 890, N-(cis-4-{[4-(dimethylamino)pyrimidin-2-yl]amino}cyclohexyl)-2-methyl-1,5-diphenyl-1H-pyrrole-3-carboxamide]",1 (Class 1: The value of percent of control at 10^−7 M was less than 40% or the value of IC50 was less than 50 nM.)
10,Cc1c(C(=O)N[C@H]2CC[C@@H](Nc3nccc(N(C)C)n3)CC2)cc(-c2ccccc2)n1CCSCc1c(F)cccc1Cl [compound 891],1 (Class 1: The value of percent of control at 10^−7 M was less than 40% or the value of IC50 was less than 50 nM.)
11,CN(C)c1ccnc(N[C@H]2CC[C@@H](NC(=O)c3c4ccccc4cc4ccccc34)CC2)n1 [compound 892],3 (Class 3 The value of percent of control at 10^−7 M was more than 60% or the value of IC50 was more than 200 nM.)
12,"CN(C)c1ccnc(N[C@H]2CC[C@@H](NC(=O)c3ccccc3Oc3ccccc3)CC2)n1 [compound 893, N-(cis-4-{[4-(dimethylamino)pyrimidin-2-yl]amino}cyclohexyl)-2-phenoxybenzamide]",2 (Class 2: The value of percent of control at 10^−7 M was from 40% to 60% or the value of IC′50 was from 50 nM to 200 nM.)
13,CN(C)c1ccnc(N[C@H]2CC[C@@H](NC(=O)c3ccccc3-c3ccccc3)CC2)n1 [compound 894],3 (Class 3 The value of percent of control at 10^−7 M was more than 60% or the value of IC50 was more than 200 nM.)
14,CN(C)c1ccnc(N[C@H]2CC[C@@H](NC(=O)CC(c3ccccc3)c3ccccc3)CC2)n1 [compound 895],3 (Class 3 The value of percent of control at 10^−7 M was more than 60% or the value of IC50 was more than 200 nM.)
15,"CN(C)c1ccnc(N[C@H]2CC[C@@H](NC(=O)c3cc(-c4ccccc4)nc4ccccc34)CC2)n1 [compound 896, N-(cis-4-{[4-(dimethylamino)pyrimidin-2-yl]amino}cyclohexyl)-2-phenylquinoline-4-carboxamide]",2 (Class 2: The value of percent of control at 10^−7 M was from 40% to 60% or the value of IC′50 was from 50 nM to 200 nM.)
16,C[C@H](NC(=O)c1ccccc1C(=O)N[C@H]1CC[C@@H](Nc2nccc(N(C)C)n2)CC1)c1ccccc1 [compound 897],3 (Class 3 The value of percent of control at 10^−7 M was more than 60% or the value of IC50 was more than 200 nM.)
17,Cc1ccc(C(=O)c2ccccc2C(=O)N[C@H]2CC[C@@H](Nc3nccc(N(C)C)n3)CC2)cc1 [compound 898],3 (Class 3 The value of percent of control at 10^−7 M was more than 60% or the value of IC50 was more than 200 nM.)
18,CN(C)c1ccnc(N[C@H]2CC[C@@H](NC(=O)c3ccccc3COc3ccccc3)CC2)n1 [compound 899],3 (Class 3 The value of percent of control at 10^−7 M was more than 60% or the value of IC50 was more than 200 nM.)
19,"CN(C)c1ccnc(N[C@H]2CC[C@@H](NC(=O)Cc3sc(-c4ccccc4)nc3-c3ccc(Cl)cc3)CC2)n1 [compound 900, 2-[4-(4-chlorophenyl)-2-phenyl-1,3-thiazol-5-yl]-N-(cis-4-{[4-(dimethylamino)pyrimidin-2-yl]amino}cyclohexyl)acetamide]",1 (Class 1: The value of percent of control at 10^−7 M was less than 40% or the value of IC50 was less than 50 nM.)
20,"Cc1ccc(S(=O)(=O)n2ccc(C(=O)N[C@H]3CC[C@@H](Nc4nccc(N(C)C)n4)CC3)c2)cc1 [compound 901, N-(cis-4-{[4-(dimethylamino)pyrimidin-2-yl]amino}cyclohexyl)-1-[(4-methylphenyl)sulfonyl]-1H-pyrrole-3-carboxamide]",2 (Class 2: The value of percent of control at 10^−7 M was from 40% to 60% or the value of IC′50 was from 50 nM to 200 nM.)
21,"CN(C)c1ccnc(N[C@H]2CC[C@@H](NC(=O)c3ccc(-c4cccc([N+](=O)[O-])c4)o3)CC2)n1 [compound 902, N-(cis-4-{[4-(dimethylamino)pyrimidin-2-yl]amino}cyclohexyl)-5-(3-nitrophenyl)-2-furamide]",2 (Class 2: The value of percent of control at 10^−7 M was from 40% to 60% or the value of IC′50 was from 50 nM to 200 nM.)
22,CN(C)c1ccnc(N[C@H]2CC[C@@H](NC(=O)c3scc(S(C)(=O)=O)c3Cl)CC2)n1 [compound 903],3 (Class 3 The value of percent of control at 10^−7 M was more than 60% or the value of IC50 was more than 200 nM.)
23,"CSc1sc(C(=O)N[C@H]2CC[C@@H](Nc3nccc(N(C)C)n3)CC2)c(Cl)c1S(=O)(=O)C(C)C [compound 904, 3-chloro-N-(cis-4-{[4-(dimethylamino)pyrimidin-2-yl]amino}cyclohexyl)-4-(isopropylsulfonyl)-5-(methylthio)thiophene-2-carboxamide]",2 (Class 2: The value of percent of control at 10^−7 M was from 40% to 60% or the value of IC′50 was from 50 nM to 200 nM.)
